Reference: US11802120B2, “Fused cyclic urea derivatives as CRHR2 antagonist” (RaQualia Pharma Inc., priority 2018, dated 2023)

The compounds below were run against T1, human CRHR2-alpha (Homo sapiens, UniProt Q13324) (assay: cAMP functional assay for human CRHR2 (LANCE Ultra cAMP, TR-FRET)). Conditions: CHO-K1 cells expressing human CRHR2-alpha, agonist human urocortin2 at EC80, cAMP; read-out: IC50 against CRHR2.
T1 sequence (Q13324 1-411): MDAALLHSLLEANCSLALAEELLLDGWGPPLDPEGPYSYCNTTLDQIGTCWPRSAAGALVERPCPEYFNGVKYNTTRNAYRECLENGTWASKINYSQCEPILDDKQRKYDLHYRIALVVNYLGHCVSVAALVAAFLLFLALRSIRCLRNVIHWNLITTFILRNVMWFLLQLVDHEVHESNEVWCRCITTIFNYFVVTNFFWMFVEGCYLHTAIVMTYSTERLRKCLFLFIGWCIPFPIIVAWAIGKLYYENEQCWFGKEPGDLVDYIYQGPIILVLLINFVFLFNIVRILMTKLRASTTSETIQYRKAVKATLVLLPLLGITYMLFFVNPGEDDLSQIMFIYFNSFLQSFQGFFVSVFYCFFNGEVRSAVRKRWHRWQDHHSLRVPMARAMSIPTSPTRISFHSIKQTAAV
Type: cell-based
Protocol: cAMP functional assay for human CRHR1 and CRHR2
The ability of the compounds of this invention to inhibit either CRHR2 or CRHR1 is assessed by 3′,5′-cyclic adenosine monophosphate (cAMP) production in cells using the LANCE Ultra cAMP assay kit (ParkinElmer), which are designed based on the homogeneous time-resolved fluorescence resonance energy transfer (TR-FRET) immunoassay.
CHO-K1 (Chinese hamster ovary) cells stably expressing either human CRHR2-alpha (DiscoveRX, Cat. 95-0048C2) or human CRHR1-beta (DiscoveRX, Cat. 95-0047C2) are grown in HAM's F12 media supplemented with 10% fetal bovine serum (FBS), 100 units/mL penicillin, 100 microg/mL hygromycin and 0.5 microg/mL geneticin at 37° C. in 5% CO2 humidified incubator to 80% confluence. After 7 hours starvation treatment in culture media containing 0.1% FBS, the cells are washed with Hanks balanced salt solution (HBSS) and cryopreserved.
For cAMP assay, frozen cells are thawed and washed with HBSS, followed by resuspended in assay buffer (HBSS containing 0.1% bovine serum albumin, 0.5 mM isobutylmethylxanthine and 5 mM Hepes, pH 7.4) at the appropriate concentration for the assay. The cell suspensions are plated on 384-well microplates (Greiner Bio-One) at a density of 4,000 cells per well. After preincubating the cells with various concentrations of the compounds for 30 min at 25° C., an assay buffer containing EC80 concentration of each agonist is added and the cells are incubated for 30 min at 25° C. Human urocortin2 (Peptide Institute) and CRF (Peptide Institute) are used as agonists for CRHR2 and CRHR1, respectively. For the termination of assay, europium-labeled cAMP tracer and ULight (registered trademark) dye labeled cAMP antibodies, both prepared with Lance-Ultra cAMP detection reagent (Perkin Elmer) are added in the plate and incubate for 60 min at 25° C. After incubation, TR-FRET signal is detected by EnVision plate reader (PerkinElmer). The IC50 values for compounds are calculated from dose-response curves by fitting the percent inhibition using XLfit (ID Business Solutions).

Question: How did the IC50 turn out when Cc1ncc(Cl)cc1C(=O)N[C@H]1CC[C@H](Cn2c(=O)n(-c3ccc(NCC4CC4)nc3)c3ccccc32)CC1 [Example 105, 5-chloro-N-((1r,4r)-4-((3-(6-((cyclopropylmethyl)amino)pyridin-3-yl)-2-oxo-2,3-dihydro-1H-benzo[d]imidazol-1-yl)methyl)cyclohexyl)-2-methylnicotinamide] was run?
Answer: < 300 nM

Question: Which IC50 does the source give for Cc1ncc(Cl)cc1C(=O)N[C@H]1CC[C@H](Cn2c(=O)n(-c3cccc(-n4cccn4)c3)c3ccccc32)CC1 [Example 541, N-((1r,4r)-4-((3-(3-(1H-pyrazol-1-yl)phenyl)-2-oxo-2,3-dihydro-1H-benzo[d]imidazol-1-yl)methyl)cyclohexyl)-5-chloro-2-methylnicotinamide] here?
Answer: < 300 nM

Question: CNC(=O)c1ccc(-n2c(=O)n(C[C@H]3CC[C@H](NC(=O)c4cc(Cl)cnc4COC)CC3)c3ccccc32)cn1 [Example 335, 5-(3-(((1r,4r)-4-(5-chloro-2-(methoxymethyl)nico-tinamido)cyclohexyl)methyl)-2-oxo-2,3-dihydro-1H-benzo[d]imidazol-1-yl)-N-methylpicolinamide] was tested. Which IC50 did it give?
Answer: < 300 nM

Question: For Cc1nc2ncc(-n3c(=O)n(C[C@H]4CC[C@H](NC(=O)c5cc(Cl)cnc5C)CC4)c4ccccc43)cc2o1 [Example 356, 5-chloro-2-methyl-N-((1r,4r)-4-((3-(2-methyloxazolo[4,5-b]pyridin-6-yl)-2-oxo-2,3-dihydro-1H-benzo[d]imidazol-1-yl)methyl)cyclohexyl)nicotinamide], which IC50 is on record?
Answer: < 300 nM

Question: For Cc1ncc(Cl)cc1C(=O)N[C@H]1CC[C@H](Cn2c(=O)n(-c3ccc(N4CC(F)C4)nc3)c3ccccc32)CC1 [Example 145, 5-chloro-N-((1r,4r)-4-((3-(6-(3-fluoroazetidin-1-yl)pyridin-3-yl)-2-oxo-2,3-dihydro-1H-benzo[d]imidazol-1-yl)methyl)cyclo-hexyl)-2-methylnicotinamide], which IC50 is on record?
Answer: < 300 nM

Question: For Cc1ncc(Cl)cc1C(=O)N[C@H]1CC[C@H](Cn2c(=O)n(-c3ccc(-n4nccn4)nc3)c3ccccc32)CC1 [Example 512, N-((1r,4r)-4-((3-(6-(2H-1,2,3-triazol-2-yl)pyridin-3-yl)-2-oxo-2,3-dihydro-1H-benzo[d]imidazol-1-yl)methyl)cyclohexyl)-5-chloro-2-methylnicotinamide], which IC50 is on record?
Answer: < 300 nM

Question: For Cc1ncc(Cl)cc1C(=O)N[C@H]1CC[C@H](Cn2c(=O)n(-c3ccnc(N(C)C)c3)c3ccccc32)CC1 [Example 649, 5-chloro-N-((1r,4r)-4-((3-(2-(dimethylamino)pyridin-4-yl)-2-oxo-2,3-dihydro-1H-benzo[d]imidazol-1-yl)methyl)cyclohexyl)-2-methyl-nicotinamide], which IC50 is on record?
Answer: < 300 nM

Question: Which IC50 does the source give for Cc1ncc(Cl)cc1C(=O)N[C@H]1CC[C@H](Cn2c(=O)n(-c3cnc(N(C)C)cn3)c3ccccc32)CC1 [Example 116, 5-chloro-N-((1r,4r)-4-((3-(5-(dimethylamino)pyrazin-2-yl)-2-oxo-2,3-dihydro-1H-benzo[d]imidazol-1-yl)methyl)cyclo-hexyl)-2-methylnicotinamide] here?
Answer: < 300 nM

Question: With Cc1ncc(Cl)cc1C(=O)N[C@H]1CC[C@H](Cn2c(=O)n(-c3ccn4cncc4c3)c3ccccc32)CC1 [Example 296, 5-chloro-N-((1r,4r)-4-((3-(imidazo[1,5-a]pyridin-7-yl)-2-oxo-2,3-dihydro-1H-benzo[d]imidazol-1-yl)methyl)cyclohexyl)-2-methylnicotinamide] as the compound, how does the IC50 read?
Answer: < 300 nM

Question: How did the IC50 turn out when O=C(N[C@H]1CC[C@H](Cn2c(=O)n(-c3ccc(N4CCOCC4)nc3)c3ccccc32)CC1)c1cc(Cl)cnc1C(F)F [Example 383, 5-chloro-2-(difluoromethyl)-N-((1r,4r)-4-((3-(6-morpholino-pyridin-3-yl)-2-oxo-2,3-dihydro-1H-benzo[d]imidazol-1-yl)methyl)cyclohexyl) nicotinamide] was run?
Answer: < 300 nM

Question: Cc1cc(-n2c(=O)n(C[C@H]3CC[C@H](NC(=O)c4cc(Cl)cnc4C(F)F)CC3)c3ccccc32)ccn1 [Example 377, 5-chloro-2-(difluoromethyl)-N-((1r,4r)-4-((3-(2-methyl-pyridin-4-yl)-2-oxo-2,3-dihydro-1H-benzo[d]imidazol-1-yl)methyl)cyclohexyl) nicotinamide] was tested. Which IC50 did it give?
Answer: < 300 nM

Question: Which IC50 does the source give for Cc1ncc(Cl)cc1C(=O)N[C@H]1CC[C@H](Cn2c(=O)n(-c3ccc4ncsc4c3)c3ncccc32)CC1 [Example 200, N-((1r,4r)-4-((3-(benzo[d]thiazol-6-yl)-2-oxo-2,3-dihydro-1H-imidazo[4,5-b]pyridin-1-yl)methyl)cyclohexyl)-5-chloro-2-methylnicotinamide] here?
Answer: < 300 nM

Question: Which IC50 does the source give for Cc1cc(N2CCNC2=O)ncc1-n1c(=O)n(C[C@H]2CC[C@H](NC(=O)c3cc(Cl)cnc3C(F)F)CC2)c2ccccc21 [Example 558, 5-chloro-2-(difluoromethyl)-N-((1r,4r)-4-((3-(4-methyl-6-(2-oxoimidazolidin-1-yl)pyridin-3-yl)-2-oxo-2,3-dihydro-1H-benzo[d]imidazol-1-yl)methyl)cyclohexyl) nicotinamide] here?
Answer: < 300 nM

Question: Which IC50 does the source give for CNC(=O)c1cc(C)c(-n2c(=O)n(C[C@H]3CC[C@H](NC(=O)c4cc(Cl)cnc4C)CC3)c3ccccc32)cn1 [Example 199, 5-(3-(((1r,4r)-4-(5-chloro-2-methylnicotinamido)cyclo-hexyl)methyl)-2-oxo-2,3-dihydro-1H-benzo[d]imidazol-1-yl)-N,4-dimethylpicolinamide] here?
Answer: < 300 nM

Question: CCn1nnc2cc(-n3c(=O)n(C[C@H]4CC[C@H](NC(=O)c5cc(Cl)cnc5C)CC4)c4ccccc43)ccc21 [Example 304, 5-chloro-N-((1r,4r)-4-((3-(1-ethyl-1H-benzo[d][1,2,3]triazol-5-yl)-2-oxo-2,3-dihydro-1H-benzo[d]imidazol-1-yl)methyl)cyclo-hexyl)-2-methylnicotinamide] was tested. Which IC50 did it give?
Answer: < 300 nM

Question: With CNc1ncc(-n2c(=O)n(C[C@H]3CC[C@H](NC(=O)c4cc(Cl)cnc4C)CC3)c3ccccc32)cc1Cl [Example 522, 5-chloro-N-((1r,4r)-4-((3-(5-chloro-6-(methylamino)pyridin-3-yl)-2-oxo-2,3-dihydro-1H-benzo[d]imidazol-1-yl)methyl)cyclohexyl)-2-methyl-nicotinamide] as the compound, how does the IC50 read?
Answer: < 300 nM

Question: How did the IC50 turn out when COc1ccc(F)c(-n2c(=O)n(C[C@H]3CC[C@H](NC(=O)c4cc(Cl)cnc4C(F)F)CC3)c3ncccc32)c1 [Example 720, 5-chloro-2-(difluoromethyl)-N-((1r,4r)-4-((1-(2-fluoro-5-methoxyphenyl)-2-oxo-1H-imidazo[4,5-b]pyridin-3(2H)-yl)methyl)cyclohexyl) nicotinamide] was run?
Answer: < 300 nM

Question: With Cc1ncc(Cl)cc1C(=O)N[C@H]1CC[C@H](Cn2c(=O)n(-c3ccc4c(c3)cc(C(N)=O)n4C)c3ccccc32)CC1 [Example 403, 5-(3-(((1r,4r)-4-(5-chloro-2-methylnicotinamido)cyclo-hexyl)methyl)-2-oxo-2,3-dihydro-1H-benzo[d]imidazol-1-yl)-1-methyl-1H-indole-2-carboxamide] as the compound, how does the IC50 read?
Answer: < 300 nM

Question: With O=C(Cn1c(=O)n(C[C@H]2CC[C@H](NC(=O)c3cc(Cl)ccc3Cl)CC2)c2ccccc21)c1ccccc1 [Example 287, 2,5-dichloro-N-((1r,4r)-4-((2-oxo-3-(2-oxo-2-phenylethyl)-2,3-dihydro-1H-benzo[d]imidazol-1-yl)methyl)cyclo-hexyl)benzamide] as the compound, how does the IC50 read?
Answer: < 300 nM

Question: For Cc1ncc(Cl)cc1C(=O)N[C@H]1CC[C@H](Cn2c(=O)n(-c3ccc4nn(C)c(C)c4c3)c3ccccc32)CC1 [Example 185, 5-chloro-N-((1r,4r)-4-((3-(2,3-dimethyl-2H-indazol-5-yl)-2-oxo-2,3-dihydro-1H-benzo[d]imidazol-1-yl)methyl)cyclohexyl)-2-methylnicotinamide], which IC50 is on record?
Answer: < 300 nM

Question: Which IC50 does the source give for Cn1ccnc1-c1ccc(-n2c(=O)n(C[C@H]3CC[C@H](NC(=O)c4cc(Cl)cnc4C(F)F)CC3)c3ccccc32)cc1 [Example 567, 5-chloro-2-(difluoromethyl)-N-((1r,4r)-4-((3-(4-(1-methyl-1H-imidazol-2-yl)phenyl)-2-oxo-2,3-dihydro-1H-benzo[d]imidazol-1-yl)methyl)cyclo-hexyl)nicotinamide] here?
Answer: < 300 nM
